Series [1] has as its system telomere length. The series is described as follows: Mean telomere length in fibroblasts. Format: cell-based, human. To be noted: for MTL values: 40 μM, 5 days (diluent 10.59). On the procedure: Cells were plated at a density of 180,000 cells/ml in RPMI 1640 medium supplemented with 3% FBS. Cells were treated with 40 μM of either of the oligonucleotides for 72 hours. Cells were then collected, washed and fixed for 30 minutes in 4% paraformaldehyde and then permeabilized with 0.1% Triton X-100 for 2 minutes. The TUNEL assay was carried out with components and instructions of the In Situ Cell Death Detection Kit using fluorescein-labeled dUTP from Boehringer Mannheim. TUNEL-positive cells were detected by FACS analysis and confocal microscopy. Cellular Uptake of Oligonucleotides For confocal analysis, Jurkat cells were plated on Permanox chamber slides (Lab-Tek, Naperville, Ill.) and treated for 4 hours with fluorescein phosphoramidite (FAM)-labeled oligonucleotides (Research Genetics, Inc., Huntsville, Ala.). Adherent cells were fixed in 4% paraformaldehyde in PBS, stained with propidium iodide (PI) to identify nuclei, mounted with Slowfade reagent (Molecular Probes, Eugene, Oreg.), covered with a coverslip and stored at 4° C. in the dark. Uptake of the oligonucleotides was assessed in 5–10 μm sections with a Carl Zeiss LSM 510 confocal laser microscope. Computer images assign green to the FAM-oligonucleotides, red to PI, and yellow to co-localization of the signals. FACS analysis was performed on Jurkat cells identically treated with the FAM-oligonucleotides for 4 hours, then fixed in 0.5 ml of 4% paraformaldehyde overnight at 4° C. Fluorescence was measured on the FL-1 channel. Western Blot Analysis and Antibodies Western blot analysis was performed as previously described [Eller, M. S., et al., (1996), Proc Natl Acad Sci USA 93, 1087–1092]. Antibody Ab-6 (DO-1 clone, Oncogene Research Products, Cambridge, Mass.) detected p53; antibody KH95 (Santa Cruz Biotechnology, Inc., Santa Cruz, Calif.) detected E2F1; antibody Ab-4 (Oncogene Research products) detected p73. Phospho-p53 (serine 15) was detected using the #9284 polyclonal antibody and phospho-p95/Nbs1 (serine 343) was detected by a phospho-p95/Nbs1-specific polyclonal antibody, both antibodies from Cell Signaling Technology (Beverly, Mass.). p95/Nbs1 antibody (#NB-100-143, Novus Biologicals, Littleton, Colo.) and an actin antibody (I-19, Santa Cruz Biotechnology, Santa Cruz, Calif.) were also used. […] After the indicated times, total protein was collected and analyzed by 8% PAGE and western blot using a polyclonal antibody to p95/Nbs1 (#NB-100-143, Novus Biologicals, Littleton, Colo.). […] Telomere length was determined essentially as described by van Steensel and de Lange (van Steensel, B. and T. de Lange. 1997, Nature 385: 740–743) using the Telo TAGGG Telomere Length Assay from Roche Molecular Biochemicals (Indianapolis, Ind.) and the protocol supplied by the manufacturer. […]

Series [2] concerns normal (control) fibroblasts. The series is described as follows: FACS analysis of normal (control) fibroblasts. It counts as cell-based, human. Particulars: 40 μM. The method, then: Fibroblasts were obtained from an NBS (Nijmegen breakage syndrome) patient, in which p95/Nbs1 was below the level of detection. Preconfluent cultures or normal (control) fibroblasts and NBS fibroblasts were treated with 40 μM of the oligonucleotides and collected after 48 hours for FACS analysis (FIGS. 34A–34H). The averages and standard deviations were calculated from triplicate cultures of each condition. FACS profiles from one representative experiment of three are shown.
Background: Flow cytometry measures light scatter and fluorescence of single cells or particles in a stream.

Oligonucleotides are written 5' to 3', each unit as a sugar letter and its base; * is a phosphorothioate linkage, no mark a phosphodiester; rarer units and linkages stand in square brackets, end groups in braces. Plain capitals give the bases only. d = 2'-deoxy (DNA); {P} = phosphate

In series [1], “pCTAACCCTAAC (DNA, 5' {P}, backbone not given here) [SEQ ID NO: 9, reference compound]” gave an MTL values of 10.45 kilobases. Further, the “S phase growth arrest” value in series [2] was “unaffected”.

For the substance “pGATCGATCGAT (DNA {P}-dGdAdTdCdGdAdTdCdGdAdT) [SEQ ID NO: 10, reference compound]”, the MTL values in series [1] came to 10.22 kilobases. In addition, in series [2], the “S phase growth arrest” value is listed as “unaffected”.

In series [1], “pGTTAGGGTTAG (DNA {P}-dGdTdTdAdGdGdGdTdTdAdG) [SEQ ID NO: 5]” yielded an MTL values of 12.25 kilobases. Besides, the “increase in MTL” value in series [1] (5-day experiment) was “approximately 20%”. Moreover, the “S phase growth arrest” value in series [2] is listed as “exhibit an S phase growth arrest within 24 hours”.

Values taken from patent US7033829B2, “Method to inhibit cell growth using oligonucleotides” (Trustees of Boston University, priority 2000, dated 2006).
